Reference: publication PMC5955437, “Antifungal activity of osthol in vitro and enhancement in vivo through Eudragit S100 nanocarriers” (Virulence, 2017)
Where two headings read alike, the source gives them in different places.

Experiments:
[1] = system: clinical isolates of C. albicans resistant to FLC; test: Checkerboard microdilution assay (CLSI M27-A2), FLC-resistant clinical isolates; type: cell-based, Candida albicans; details: for MIC80: Candida albicans, read-out: MIC80 alone; for MIC80 / MIC80 alone: 24 h, 35 °C; for antifungal activity when tested alone: FLC-resistant isolates, drug alone; for MIC80 in combination: FLC combined with Ost
Protocol: (§1) Eleven clinical isolates of FLC-resistant C. albicans were used in this study, and C. albicans ATCC 90028 was used as a quality control. Drugs prepared in dimethyl sulfoxide (DMSO) included osthol (Shanghai Jianglai Biotechnology Co. Ltd, China) and fluconazole (Pfizer-Roerig Pharmaceuticals, New York, NY).
(§2) Assays were performed on all 11 isolates according to methods of the CLSI (formerly NCCLS) (M27-A2). The concentration of fungus suspension in RPMI 1640 medium was 10^3 CFU/ml, and the final concentration ranged from 0.125 to 64 μg/ml for FLC and 1 to 32 μg/ml for OST. Plates were incubated at 35 °C for 24 h. Optical density was measured at 630 nm and background optical densities were subtracted from each well. MIC80 were defined as the minimum inhibition concentration of the drugs that inhibited growth by 80% when compared with drug-free wells. The fractional inhibitory concentration index (FICI) were defined as the sum of the MIC80 of each drug when used in combination divided by the MIC80 of the drug used alone. Synergism and antagonism were defined by FICIs of≤ 0.5 and >4, respectively. An FICI result of > 0.5 but ≤ 4 was considered indifferent.[43]

[2] = system: C. albicans ATCC 90028; test: Checkerboard microdilution assay, quality control strain; type: cell-based, Candida albicans; details: ATCC90028; for MIC80 in combination: FLC combined with Ost
Protocol: as §1, §2

[3] = system: C. albicans 103; test: Agar disk diffusion test; type: cell-based, Candida albicans; details: for anti-fungal activity, disk on plain agar: Ost alone
Protocol: C. albicans 103 (FLC-resistant isolate with a MIC80 of 64 μg/ml for […]) was tested by agar diffusion assay.[44] A 100 μl of C. albicans 103 in 10^6 CFU/ml suspension was spread uniformly onto the yeast extract-peptone-dextrose agar plate with or without 64 μg/ml FLC. Then, 6-mm paper disks impregnated with Ost and FLC alone or in combination were placed onto the agar surface. There was 5 μl of DMSO in control disks. Inhibition zones were measured after incubation at 35°C for 48 h. Assays were performed in duplicate.

[4] = system: C. albicans 103; test: Survival of immunosuppressed mice systemically infected with C. albicans; type: in vivo, Candida albicans; details: immunosuppressed ICR mice, 1 × 10^6 CFU i.v.; oral FLC 0.5 mg/kg/day, Ost 150 mg/kg/day, 4 d treatment
Protocol: Sixty female ICR mice (weighing 20–25 g) were prepared in the antifungal study in vivo. We followed the methods of Junius M et al. and Kenneth et al. with a few modifications.[45,46] Briefly, acute infections in immunosuppressed mice, resulting from a 80 mg/kg/day intravenous dose of cyclophosphamide 3 d before infection, then injected with 1 × 10^6 CFU C. albicans in 0.2 ml of saline intravenously. This inoculum was uniformly lethal for placebo-treated animals within a week. After inoculation, the mice were randomly separated into 6 groups (10 animals per group), including saline control group and medication administration groups (FLC, Ost-S100-NP, Ost-suspensions, Ost-suspensions plus FLC, and Ost-S100-NP plus FLC). The dosages of FLC and Ost are 0.5 mg/kg/day and 150 mg/kg/day by oral administration. Therapy was begun 2 hours post infection and last for 4 d. The survival time was calculated from the day 0 since inoculation to the day of death. Survival data were presented as Kaplan-Merier plots and analyzed with a Log-rank Test (SPSS 18; SPSS, Chicago, Illinois). A value of P < 0.05 was considered to be significant.

Compound: OC(Cn1cncn1)(Cn1cncn1)c1ccc(F)cc1F [FLC, fluconazole, reference compound]
- MIC80 ([1]; isolate 32): 64 µg/mL
- MIC80 ([1]; isolate 100): > 64 µg/mL
- MIC80 ([1]; isolate 103): > 64 µg/mL
- MIC80 ([1]; isolate 557): > 64 µg/mL
- MIC80 ([1]; isolate 842): > 64 µg/mL
- MIC80 ([1]; isolate 901): > 64 µg/mL
- MIC80 ([1]; isolate 904): > 64 µg/mL
- MIC80 ([1]; isolate 953): 64 µg/mL
- MIC80 ([1]; isolate J5): > 64 µg/mL
- MIC80 ([1]; isolate J28): > 64 µg/mL
- MIC80 ([1]; isolate J35): 64 µg/mL
- antifungal activity when tested alone [1]: weak antifungal activity
- MIC80 in combination ([1]; isolate 32): 2 µg/mL
- MIC80 in combination ([1]; isolate 100): 4 µg/mL
- MIC80 in combination ([1]; isolate 103): 4 µg/mL
- MIC80 in combination ([1]; isolate 557): 2 µg/mL
- MIC80 in combination ([1]; isolate 842): 2 µg/mL
- MIC80 in combination ([1]; isolate 901): 2 µg/mL
- MIC80 in combination ([1]; isolate 904): 2 µg/mL
- MIC80 in combination ([1]; isolate 953): 2 µg/mL
- MIC80 in combination ([1]; isolate J5): 2 µg/mL
- MIC80 in combination ([1]; isolate J28): 8 µg/mL
- MIC80 in combination ([1]; isolate J35): 1 µg/mL
- MIC80 in combination [2]: 0.0625 µg/mL
- MIC80 ([2]; Candida albicans, 35 °C, 24 h, read-out: MIC80 alone): 0.25 µg/mL
- inhibition, disk on plain agar ([3]; FLC alone, 10 μg, 35°C, 48 h): only weak inhibition
- average survival day [4]: 8.7 days

Compound: 7-methoxy-8-[3-methylpent-2-enyl] coumarin [Ost]
- antifungal activity when tested alone [1]: weak antifungal activity
- MIC80 alone ([1]; isolate 32): 64 µg/mL
- MIC80 in combination ([1]; isolate 32): 4 µg/mL
- MIC80 alone ([1]; isolate 100): 32 µg/mL
- MIC80 in combination ([1]; isolate 100): 4 µg/mL
- MIC80 alone ([1]; isolate 103): 64 µg/mL
- MIC80 in combination ([1]; isolate 103): 4 µg/mL
- MIC80 alone ([1]; isolate 557): 64 µg/mL
- MIC80 in combination ([1]; isolate 557): 2 µg/mL
- MIC80 alone ([1]; isolate 842): 64 µg/mL
- MIC80 in combination ([1]; isolate 842): 2 µg/mL
- MIC80 alone ([1]; isolate 901): 16 µg/mL
- MIC80 in combination ([1]; isolate 901): 4 µg/mL
- MIC80 alone ([1]; isolate 904): >64 µg/mL
- MIC80 in combination ([1]; isolate 904): 4 µg/mL
- MIC80 alone ([1]; isolate 953): 32 µg/mL
- MIC80 in combination ([1]; isolate 953): 4 µg/mL
- MIC80 alone ([1]; isolate J5): 64 µg/mL
- MIC80 in combination ([1]; isolate J5): 8 µg/mL
- MIC80 alone ([1]; isolate J28): 64 µg/mL
- MIC80 in combination ([1]; isolate J28): 8 µg/mL
- MIC80 alone ([1]; isolate J35): 32 µg/mL
- MIC80 in combination ([1]; isolate J35): 8 µg/mL
- MIC80 alone ([2]; 35 °C, 24 h): 8 µg/mL
- MIC80 in combination [2]: 1 µg/mL
- mean diameter of the inhibitory zone ([3]; 8 μg Ost disk on YEPD plate containing 64 μg/ml FLC): 8 mm
- mean diameter of the inhibitory zone ([3]; 16 μg Ost disk on YEPD plate containing 64 μg/ml FLC): 12 mm
- mean diameter of the inhibitory zone ([3]; 32 μg Ost disk on YEPD plate containing 64 μg/ml FLC): 16 mm
- mean diameter of the inhibitory zone ([3]; 64 μg Ost disk on YEPD plate containing 64 μg/ml FLC): 21 mm
- anti-fungal activity, disk on plain agar ([3]; 64 μg, 35°C, 48 h): weak anti-fungal activity
- anti-fungal activity, disk on plain agar ([3]; smaller dosage (below 64 μg), 35°C, 48 h): no anti-fungal activity
